According to EPA's ToxValDB 9.5 (doi:10.2903/j.efsa.2017.4976):
Values after ≈ are worked out from the molar mass of the structure shown.

Assays:
Tagia sp. = conditions: chronic/long-term; growth
Hypoaspis aculeifer = conditions: chronic/long-term; mortality
Apis mellifera = conditions: acute, mortality
Colinus virginianus = conditions: for LD50: acute, oral, mortality
Oryctolagus sp. = conditions: reproduction developmental
Elodea callitrichoides = conditions: chronic/long-term; duration: 42 days
Daphnia magna = conditions: chronic/long-term; duration: 21 days; reproduction
Rattus norvegicus = conditions: acute; oral; mortality

SMILES: CNC1=C(c2cccc(C(F)(F)F)c2)C(=O)C(c2ccccc2)O1 (stereo not drawn) [Flurtamone]
- NOEC (Tagia sp.): 47.5 mg/kg
- NOEC (Hypoaspis aculeifer): 89 mg/kg
- LD50 (Apis mellifera; dermal): > 100 µg/piece
- LD50 (Apis mellifera; oral, unspecified): > 105 µg/piece
- LD50 (Colinus virginianus; diet): > 1580 mg/kg-day
- LD50 (Colinus virginianus): > 2530 mg/kg
- NOEL (Colinus virginianus; reproduction developmental): 7.3 mg/kg-day
- NOAEL (Oryctolagus sp.): 20 mg/kg-day
- NOEC (Elodea callitrichoides): 0.001 mg/L
- LC50 (Pimephales promelas; acute, duration: 96 hours, oral, feed, mortality): 6.64 µg/mL (≈ 19.9 µM)
- NOEC (Pimephales promelas; chronic/long-term, growth): 0.188 mg/L
- NOEC (Daphnia magna): 0.071 mg/L
- LD50 (Rattus norvegicus): > 5000 mg/kg-day
